Test results reported in US20140011799A1 (Bristol-Myers Squibb Company, priority 2012, published 2014).
pIC50: −log10 of the molar value.

Assays:
[1] = biological target: T1, hepatic lipase (HL) (Homo sapiens, UniProt P11150); assay: Hepatic lipase (HL) enzymatic assay, fluorescent substrate A10070 in DMPG vesicles; type: biochemical; conditions: HL partially purified from conditioned media of COS cells; compound preincubated 30 min at 37° C; read-out: HL IC50
T1 construct: made in house; host or cells: COS cells (conditioned medium, partially purified)
T1 sequence (P11150 23-499): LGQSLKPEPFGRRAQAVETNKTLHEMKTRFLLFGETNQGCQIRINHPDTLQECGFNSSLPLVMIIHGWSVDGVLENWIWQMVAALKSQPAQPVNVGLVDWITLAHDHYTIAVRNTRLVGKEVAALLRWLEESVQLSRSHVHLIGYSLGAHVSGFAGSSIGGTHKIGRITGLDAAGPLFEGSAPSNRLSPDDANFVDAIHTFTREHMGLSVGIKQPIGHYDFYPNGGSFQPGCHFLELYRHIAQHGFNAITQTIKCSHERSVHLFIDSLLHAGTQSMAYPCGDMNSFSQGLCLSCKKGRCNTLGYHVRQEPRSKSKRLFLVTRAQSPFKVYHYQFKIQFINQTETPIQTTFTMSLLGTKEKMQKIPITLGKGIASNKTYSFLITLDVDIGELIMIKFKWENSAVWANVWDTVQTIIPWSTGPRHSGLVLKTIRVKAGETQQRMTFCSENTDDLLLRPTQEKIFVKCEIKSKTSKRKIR
In short: (§1)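 Vesicles prepared: A10070 dried with DMPG, resuspended in HEPES pH 8.0/NaCl/EDTA, sonicated on ice. Enzyme incubated with compound 30 min at 37° C. Reaction started with 1:10 diluted vesicles. Fluorescence (490/530 nm) followed 60 min; slope from 300–900 secs gives rate.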

[2] = biological target: T2, Endothelial lipase (EL) (Homo sapiens, UniProt Q9Y5X9); assay: Endothelial lipase (EL) enzymatic assay, fluorescent substrate A10070 in DMPG vesicles; type: biochemical; conditions: EL from conditioned media of HT-1080 cells; compound preincubated 30 min at 37° C; read-out: EL IC50
T2 construct: HT-1080 cells that were transformed using RAGE technology (Athersys) to overexpress endogenous EL; endogenous in cells; conditioned medium used
T2 sequence (Q9Y5X9 21-500): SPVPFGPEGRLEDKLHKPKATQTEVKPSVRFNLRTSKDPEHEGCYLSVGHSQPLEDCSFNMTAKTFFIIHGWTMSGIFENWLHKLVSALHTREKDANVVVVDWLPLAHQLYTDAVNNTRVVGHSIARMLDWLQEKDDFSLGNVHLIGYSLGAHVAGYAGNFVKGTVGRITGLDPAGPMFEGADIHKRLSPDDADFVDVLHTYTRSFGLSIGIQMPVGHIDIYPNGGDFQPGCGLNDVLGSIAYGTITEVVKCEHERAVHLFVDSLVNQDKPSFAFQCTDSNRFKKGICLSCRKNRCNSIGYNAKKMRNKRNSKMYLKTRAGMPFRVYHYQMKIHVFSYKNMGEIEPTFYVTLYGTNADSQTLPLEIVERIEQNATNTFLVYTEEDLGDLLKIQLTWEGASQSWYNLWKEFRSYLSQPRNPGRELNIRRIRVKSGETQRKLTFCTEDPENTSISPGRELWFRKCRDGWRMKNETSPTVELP
In short: as §1

| Compound | pIC50 [1] | pIC50 [2] |
| --- | --- | --- |
| COCCNC(=O)c1cccc(-c2ccc3nc(C(c4nnc(CNS(N)(=O)=O)o4)S(C)(=O)=O)sc3c2)c1 (stereo not drawn) [Example 262, 3-{2-[methanesulfonyl({5-[(sulfamoylamino)methyl]-1,3,4-oxadiazol-2-yl})methyl]-1,3-benzothiazol-6-yl}-N-(2-methoxyethyl) benzamide] | 7.35 | 7.85 |
| CS(=O)(=O)C(c1nnc(CNS(N)(=O)=O)o1)c1nc2ccc(-c3cccc(C(=O)Nc4cccnc4)c3)cc2s1 (stereo not drawn) [Example 263, 3-{2-[methanesulfonyl({5-[(sulfamoylamino)methyl]-1,3,4-oxadiazol-2-yl})methyl]-1,3-benzothiazol-6-yl}-N-(pyridin-3-yl) benzamide] | 7.59 | 8.40 |
| CS(=O)(=O)C(c1nnc(CNS(N)(=O)=O)o1)c1nc2ccc(-c3cccc(C(=O)N4CCC4)c3)cc2s1 (stereo not drawn) [Example 264, N-{[5-({6-[3-(azetidine-1-carbonyl)phenyl]-1,3-benzothiazol-2-yl} (methanesulfonyl)methyl)-1,3,4-oxadiazol-2-yl]methyl}aminosulfonamide] | 7.43 | 7.72 |
| C#CCNC(=O)c1cccc(-c2ccc3nc(C(c4nnc(CNS(N)(=O)=O)o4)S(C)(=O)=O)sc3c2)c1 (stereo not drawn) [Example 265, 3-{2-[methanesulfonyl({5-[(sulfamoylamino)methyl]-1,3,4-oxadiazol-2-yl})methyl]-1,3-benzothiazol-6-yl}-N-(prop-2-yn-1-yl) benzamide] | 7.72 | 8.22 |
| CS(=O)(=O)C(c1nnc(CNS(N)(=O)=O)o1)c1nc2ccc(-c3cccc(C(=O)N4CC[C@H](O)C4)c3)cc2s1 (stereo partly drawn) [Example 266, N-({5-[(6-{3-[(3S)-3-hydroxypyrrolidine-1-carbonyl]phenyl}-1,3-benzothiazol-2-yl) (methanesulfonyl)methyl]-1,3,4-oxadiazol-2-yl}methyl)aminosulfonamide] | 7.03 | 7.89 |
| COC1CN(C(=O)c2cccc(-c3ccc4nc(C(c5nnc(CNS(N)(=O)=O)o5)S(C)(=O)=O)sc4c3)c2)C1 (stereo not drawn) [Example 267, N-({5-[methanesulfonyl({6-[3-(3-methoxyazetidine-1-carbonyl)phenyl]-1,3-benzothiazol-2-yl})methyl]-1,3,4-oxadiazol-2-yl}methyl)aminosulfonamide] | 7.39 | 7.85 |
